Patent US20260014153A1, “ELACESTRANT IN COMBINATION WITH ABEMACICLIB IN WOMEN WITH BREAST CANCER” (RADIUS PHARMACEUTICALS, INC., priority 2018, published 2026)

Experiments:
[1] = bone loss in ovariectomized rats; type: in vivo
[2] = tested on: brain metastasis xenograft; assay: brain metastasis xenograft model; conditions: in vivo
[3] = tested on: ER+ breast cancer; conditions: monotherapy; models including fulvestrant-insensitive, estrogen-independent and/or ESR1-mutant; cited from earlier work
[4] = molecular target: T1, ER in the uterus and pituitary (Homo sapiens, UniProt P03372); assay: estradiol binding to ER by FES-PET imaging; type: in vivo; conditions: uterine and pituitary tissue
T1 construct: from tissue; host or cells: uterus and pituitary, in vivo
T1 sequence (P03372 1-595): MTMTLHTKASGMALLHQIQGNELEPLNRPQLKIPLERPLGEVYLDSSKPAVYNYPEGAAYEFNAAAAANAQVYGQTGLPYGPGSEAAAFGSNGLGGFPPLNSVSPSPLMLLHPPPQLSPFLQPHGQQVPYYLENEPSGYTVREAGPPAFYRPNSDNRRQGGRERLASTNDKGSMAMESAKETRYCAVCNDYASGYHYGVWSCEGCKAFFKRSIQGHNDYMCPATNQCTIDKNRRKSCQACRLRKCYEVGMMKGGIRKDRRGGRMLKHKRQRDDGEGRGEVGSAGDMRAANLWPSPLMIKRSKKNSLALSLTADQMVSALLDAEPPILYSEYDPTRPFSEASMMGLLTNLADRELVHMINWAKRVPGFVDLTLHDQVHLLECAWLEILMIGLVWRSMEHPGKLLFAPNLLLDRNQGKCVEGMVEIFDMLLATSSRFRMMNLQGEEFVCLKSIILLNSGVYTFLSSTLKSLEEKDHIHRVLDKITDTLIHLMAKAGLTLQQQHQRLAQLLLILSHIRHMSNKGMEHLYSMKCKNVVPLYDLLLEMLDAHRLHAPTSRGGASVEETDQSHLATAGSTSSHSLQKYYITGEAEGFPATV
Protocol: In these experiments, estradiol binding to ER in uterine and pituitary tissue was evaluated by FES-PET imaging.

[5] = tested on: tumors expressing Y537S ERα; assay: growth of tumors expressing mutant ERα; type: in vivo
[6] = tested on: tumors expressing wild-type ERα; assay: growth of tumors expressing wild-type ERα; type: in vivo
[7] = tested on: ER+ breast cancer with both wild-type and mutant ESR1; conditions: models of ER+ breast cancer, single agent and in combination with a CDK4/6 inhibitor; cited from earlier work
[8] = half life after PO dosing; type: in vivo; conditions: humans
[9] = molecular target: T2, ERα (Homo sapiens, UniProt P03372); conditions: cited from earlier work
T2 sequence (P03372 1-595): T1 sequence (P03372 1-595)

[10] = tested on: breast cancer tumor; assay: animal xenograft model of breast cancer; conditions: in vivo
[11] = standardized uptake value in tissues not significantly expressing ER; type: in vivo, human; conditions: 200 mg or up to 500 mg q.d.; uterus, muscle, bone tissues not significantly expressing ER
[12] = tested on: uterine tissues; assay: estradiol stimulation of uterine tissues in ovariectomized rats; type: in vivo

- observed level of ER binding after treatment [4]: at or below background levels
- half life [8]: surprisingly long half life
- accumulation within tumor cells [10]: significant accumulation
- change in standardized uptake value (SUV) pre- and post-treatment [11]: hardly any changes
Compound: CCNCCc1ccc(CN(CC)c2cc(OC)ccc2[C@@H]2CCc3cc(O)ccc3C2)cc1 [RAD1901]
- bone loss [1]: protects against bone loss
- blood-brain barrier penetration [2]: capable of penetrating the blood-brain barrier
- survival [2]: significantly prolonged survival
- antitumor activity [3]: demonstrated antitumor activity
- inhibition of tumor growth [5]: unexpected ability to inhibit the growth of tumors
- inhibition of tumor growth [6]: inhibit tumor growth
- inhibition of tumor growth [7]: effective in inhibiting tumor growth
- binding preference ERα versus ERβ [9]: preferentially bind ERα
- breast cancer tumor growth [10]: inhibiting breast cancer tumor growth
- estradiol stimulation of uterine tissues [12]: antagonized estradiol stimulation
